According to paper PMC6379637, “Consecutive influenza surveillance of neuraminidase mutations and neuraminidase inhibitor resistance in Japan” (Influenza and Other Respiratory Viruses, 2019):
Values joined by “and” are separate entries in the source; they are usually repeats but may differ in a detail not shown here. Equal entries are not always repeated.

Columns and labels:
[1] = molecular target: A/H1N1pdm09 neuraminidase; assay type: biochemical, influenza A/H1N1pdm09 virus; settings: read-out: IC50
[2] = molecular target: influenza B neuraminidase; assay type: biochemical, influenza B virus; settings: read-out: IC50

Compound	IC50 [1]	IC50 [2]
CCC(CC)[C@H](NC(C)=O)[C@@H]1[C@H](O)[C@@H](C(=O)O)C[C@H]1N=C(N)N [Peramivir, peramivir hydrate]	0.45 nM and 0.65 nM and 0.26 nM	–
CCOC(=O)C1=C[C@@H](OC(CC)CC)[C@H](NC(C)=O)[C@@H](N)C1 [Oseltamivir, oseltamivir phosphate]	–	14 nM
